Assay results taken from US6376670B1, “Quinoline-indole antimicrobial agents, uses and compositions related thereto” (Sepracor Inc., priority 1997, dated 2002).
Converted amounts (≈) assume the structure as drawn.

How the values were obtained:
Assay in all cases: Determination of MIC values (BHI broth, 96 well microtiter plate)
Assay type in all cases: cell-based
Streptococcus pneumoniae = conditions: BHI broth, 37° C., about 16 hours; for MIC: Streptococcus pneumoniae, read-out: MIC S. pneu
Method in brief: (§1)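 MIC is read as the lowest drug concentration showing no observable growth after roughly 16 hours at 37° C in approx. 7-10% CO2. Testing used BHI broth containing compound at 0.39–25 µg/mL final, inoculated with 10^5 to 10^6 cells/mL.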

[1] = tested on: methicillin-resistant Staphylococcus aureus (MRSA); conditions: BHI broth, 37° C., about 16 hours; for MIC: Staphylococcus aureus, MRSA, 16 h, read-out: MIC MRSA
Method in brief: as §1

[2] = tested on: vancomycin-resistant Enterococcus spp. (VRE); conditions: BHI broth, 37° C., about 16 hours; for MIC: Enterococcus, VRE, 16 h, read-out: MIC VREF
Method in brief: as §1

Row | SMILES | MIC (Streptococcus pneumoniae) | MIC [1] | MIC VREF [2] | MIC [2] | MIC S. pneu (Streptococcus pneumoniae) | MIC MRSA [1]
1 | OCc1cc(-c2c[nH]c3ccc(Br)cc23)nc2cc(F)ccc12 [Example 446] | < 7 µg/mL | < 7 µg/mL | <7 µg/mL |  |  | 
2 | Clc1ccc2nc(-c3c[nH]c4ccc(Br)cc34)c3c(c2c1)OCC3 [Example 448] | < 25 µg/mL | < 7 µg/mL |  | > 25 µg/mL |  | 
3 | COc1ccc2nc(-c3c(C)[nH]c4ccccc34)ccc2c1 [Example 449] | > 25 µg/mL | > 25 µg/mL |  | > 25 µg/mL |  | 
4 | COc1ccc2nc(-c3c[nH]c4ccc(OCc5ccccc5)cc34)ccc2c1 [Example 450] | > 25 µg/mL | > 25 µg/mL |  | > 25 µg/mL |  | 
5 | Clc1cc(-c2c[nH]c3ccccc23)nc2ccccc12 [Example 451] | < 7 µg/mL | < 7 µg/mL |  | > 25 µg/mL |  | 
6 | OCc1cc(-c2c[nH]c3ccc(Br)cc23)nc2ccc(I)cc12 [Example 452] | < 7 µg/mL | < 7 µg/mL |  | > 25 µg/mL |  | 
7 | OCc1cc(-c2c[nH]c3ccc(Br)cc23)nc2cc(I)ccc12 [Example 453] | < 7 µg/mL | < 7 µg/mL |  | < 7 µg/mL |  | 
8 | OCc1cc(-c2c[nH]c3ccc(Br)cc23)nc2c(I)cccc12 [Example 454] | < 7 µg/mL | < 7 µg/mL |  | < 7 µg/mL |  | 
9 | OCc1cc(-c2c[nH]c3ccc(Br)cc23)nc2ccc(Cl)cc12 [Example 455] | < 7 µg/mL | < 7 µg/mL | <7 µg/mL |  |  | 
10 | OCc1cc(-c2c[nH]c3ccc(Br)cc23)nc2cc(Cl)ccc12 [Example 456] | < 7 µg/mL | < 7 µg/mL | <7 µg/mL |  |  | 
11 | OCc1cc(-c2c[nH]c3ccc(Br)cc23)nc2c(Cl)cccc12 [Example 457] | < 7 µg/mL | < 7 µg/mL |  | < 7 µg/mL |  | 
12 | OCc1cc(-c2c[nH]c3ccc(Br)cc23)nc2c(Br)cccc12 [Example 458] | < 7 µg/mL | < 7 µg/mL |  | < 7 µg/mL |  | 
13 | OCc1[nH]c2ccccc2c1-c1cc(Cl)c2ccccc2n1 [Example 459] | > 25 µg/mL | > 25 µg/mL |  | > 25 µg/mL |  | 
14 | Clc1ccc2c(Cl)cc(-c3c[nH]c4ccc(Br)cc34)nc2c1 [Example 460] | < 7 µg/mL | < 7 µg/mL |  | < 7 µg/mL |  | 
15 | N#Cc1ccc2[nH]cc(-c3cc(Cl)c4ccc(Cl)cc4n3)c2c1 [Example 462] | > 25 µg/mL | > 25 µg/mL |  | > 25 µg/mL |  | 
16 | Clc1ccc2c(Cl)cc(-c3c[nH]c4cc(Cl)ccc34)nc2c1 [Example 463] | 25 µg/mL (≈ 71.9 µM) | 25 µg/mL (≈ 71.9 µM) |  | > 25 µg/mL |  | 
17 | COc1ccc2[nH]cc(-c3cc(Cl)c4ccc(Cl)cc4n3)c2c1 [Example 464] | < 7 µg/mL | < 7 µg/mL |  | > 25 µg/mL |  | 
18 | Cc1[nH]c2ccc(Cl)cc2c1-c1cc(Cl)c2ccccc2n1 [Example 465] | < 7 µg/mL | < 7 µg/mL |  | < 25 µg/mL |  | 
19 | Cc1ccc2nc(-c3c(C)[nH]c4ccccc34)ccc2c1 [Example 466] | < 25 µg/mL | > 25 µg/mL |  | > 25 µg/mL |  | 
20 | Cc1ccc2nc(-c3c[nH]c4c(C)cccc34)ccc2c1 [Example 467] | > 25 µg/mL | > 25 µg/mL |  | > 25 µg/mL |  | 
21 | Cc1ccc2nc(-c3c[nH]c4ccc(O)cc34)ccc2c1 [Example 468] | > 25 µg/mL | 25 µg/mL (≈ 91.1 µM) |  | > 25 µg/mL |  | 
22 | Cc1ccc2nc(-c3c[nH]c4ccc(OCc5ccccc5)cc34)ccc2c1 [Example 469] | < 7 µg/mL | < 7 µg/mL |  | > 25 µg/mL |  | 
23 | OCc1[nH]c2ccc(Cl)cc2c1-c1cc(Cl)c2ccccc2n1 [Example 470] | > 25 µg/mL | > 25 µg/mL |  | > 25 µg/mL |  | 

Row | SMILES | MIC (Streptococcus pneumoniae) | MIC [1] | MIC VREF [2] | MIC [2] | MIC S. pneu (Streptococcus pneumoniae) | MIC MRSA [1]
24 | Cc1[nH]c2ccccc2c1-c1ccc2cccc(C)c2n1 [Example 472] | < 25 µg/mL | < 25 µg/mL |  | > 25 µg/mL |  | 
25 | Cc1[nH]c2ccc(Cl)cc2c1-c1cc(Cl)c2ccc(Cl)cc2n1 [Example 473] | < 7 µg/mL | < 7 µg/mL |  | < 25 µg/mL |  | 
26 | Clc1ccc2c(Cl)cc(-c3c[nH]c4ccc(Cl)cc34)nc2c1 [Example 475] | < 7 µg/mL | < 7 µg/mL |  | < 7 µg/mL |  | 
27 | Cc1cccc2c(-c3cc(Cl)c4ccc(Cl)cc4n3)c[nH]c12 [Example 476] | < 25 µg/mL | > 25 µg/mL |  | > 25 µg/mL |  | 
28 | Clc1ccc2c(Cl)cc(-c3c[nH]c4ccc(OCc5ccccc5)cc34)nc2c1 [Example 477] | < 7 µg/mL | < 7 µg/mL |  | > 25 µg/mL |  | 
29 | Cc1ccc2ccc(-c3c[nH]c4cc(F)ccc34)nc2c1 [Example 478] | > 25 µg/mL | > 25 µg/mL |  | > 25 µg/mL |  | 
30 | COc1ccc2[nH]cc(-c3ccc4ccc(C)cc4n3)c2c1 [Example 479] | < 25 µg/mL | > 25 µg/mL |  | > 25 µg/mL |  | 
31 | COc1ccc2nc(-c3c[nH]c4ccccc34)ccc2c1 [Example 480] | > 25 µg/mL | > 25 µg/mL |  | > 25 µg/mL |  | 
32 | Cc1ccc2nc(-c3c[nH]c4ccccc34)ccc2c1 [Example 481] | > 25 µg/mL | > 25 µg/mL |  | > 25 µg/mL |  | 
33 | Clc1ccc2c(Cl)cc(-c3c[nH]c4ccccc34)nc2c1 [Example 482] | < 7 µg/mL | < 7 µg/mL |  | < 7 µg/mL |  | 
34 | NC(=O)c1cc(-c2c[nH]c3ccc(Br)cc23)nc2ccc(C#CCN3CCCCC3)cc12 [Example 483] | < 7 µg/mL | < 7 µg/mL |  | < 7 µg/mL |  | 
35 | Clc1ccc2nc(-c3c[nH]c4ccc(Cl)cc34)ccc2c1 [Example 484] |  | < 7 µg/mL |  | > 25 µg/mL | < 7 µg/mL | 
36 | COc1ccc(NC(=O)c2cc(-c3c[nH]c4ccc(Br)cc34)nc3ccc(C#CCN4CCCCC4)cc23)cc1 [Example 485] | < 25 µg/mL | < 7 µg/mL |  | > 25 µg/mL |  | 
37 | COC(=O)c1cc(-c2c[nH]c3ccc(Br)cc23)nc2cc(F)ccc12 [Example 486] | < 7 µg/mL | < 7 µg/mL |  | < 7 µg/mL |  | 
38 | NCCNC(=O)c1cc(-c2c[nH]c3ccc(Br)cc23)nc2cc(Cl)ccc12 [Example 487] | < 7 µg/mL | < 7 µg/mL |  | < 7 µg/mL |  | 
39 | OCc1cc(-c2c[nH]c3ccc(Br)cc23)nc2cc(F)ccc12 [Example 490] |  |  | >25 µg/mL |  | < 7 µg/mL | < 7 µg/mL
40 | OCc1cc(-c2c[nH]c3ccc(Br)cc23)nc2ccc(Cl)cc12 [Example 491] |  |  | >25 µg/mL |  | < 7 µg/mL | < 7 µg/mL
41 | OCc1cc(-c2c[nH]c3ccc(Br)cc23)nc2cc(Cl)ccc12 [Example 492] |  |  | <25 µg/mL |  | < 7 µg/mL | < 7 µg/mL
42 | NCc1ccc(CNC(=O)c2cc(-c3c[nH]c4cc(F)ccc34)nc3cc(F)ccc23)cc1 [Example 493] | < 25 µg/mL | < 25 µg/mL |  | < 25 µg/mL |  | 
43 | NCc1cccc(CNC(=O)c2cc(-c3c[nH]c4cc(F)ccc34)nc3cc(F)ccc23)c1 [Example 494] | < 7 µg/mL | < 7 µg/mL |  | < 7 µg/mL |  | 
44 | NCCCNC(=O)c1cc(-c2c[nH]c3cc(F)ccc23)nc2cc(F)ccc12 [Example 495] | < 25 µg/mL | < 25 µg/mL |  | > 25 µg/mL |  | 
45 | NCCCCNC(=O)c1cc(-c2c[nH]c3cc(F)ccc23)nc2cc(F)ccc12 [Example 496] | < 25 µg/mL | < 25 µg/mL |  | > 25 µg/mL |  | 
